settings: a range is the spread between reports

Row | SMILES | melting point
1 | CCCCCCCCCCCCCCCCC(=O)O | 60 to 61.3 °C
2 | O=C(O)c1cc(Cl)cc(Cl)c1 | 186 to 188 °C
3 | CCC(C)(C)C(=O)OC1CC(C)C=C2C=CC(C)C(CCC3CC(O)CC(=O)O3)C21 (stereo unspecified) | 136 °C
4 | O=C(O)C=Cc1ccc(Cl)cc1 | 248 to 249 °C
5 | O=C1CC[C@@H](C(=O)O)N1 | 160 to 162 °C
6 | C=CC(=O)OCCCC | -64.6 to -64 °C
7 | O=C(/C=C/c1ccc2ccccc2c1)/C=C/c1ccc2ccccc2c1 | 242 to 245 °C
8 | C=C(C)[C@@H]1CCC2=CC(=O)C[C@@H](C)[C@]2(C)C1 | 36 to 36.9 °C
9 | O=Cc1ccc(C(=O)O)cc1 | 245 to 247 °C
10 | C=CCC(C)C | -154 to -153 °C
11 | Oc1ccc(Cl)cc1 | 41 to 44 °C
12 | Cc1ccc(N)nc1 | 76 to 76.5 °C
13 | N#Cc1ccccc1O | 93.5 to 98 °C
14 | O=C(O)CCOc1ccccc1 | 97.5 to 98 °C
15 | ClCc1ccc(Cl)cc1Cl | -3 to -2.6 °C
16 | NCCCCN | 27 to 27.5 °C
17 | O=[N+]([O-])c1ccc(Cl)cc1Cl | 30.5 to 34 °C
18 | CC(=O)NO | 88 to 90.5 °C
19 | Oc1ccccc1O | 105 to 106 °C
20 | O=C1CCCN1 | 23 to 24 °C
21 | O=[N+]([O-])c1cc(C(F)(F)F)ccc1Cl | -3 to -2.5 °C
22 | c1ccc2nc3ccccc3cc2c1 | 108 to 109 °C

Row | SMILES | melting point
23 | COC(=O)c1ccc(C(=O)OC)cc1 | 141 to 142 °C
24 | NC1CCCCC1 | -18 to -17 °C
25 | O=C(O)c1ccc(O)cc1O | 225 to 226 °C
26 | Nc1ccc(Cl)cc1Cl | 61 to 63.5 °C
27 | CCC(O)(CC)CC | -13 to -12.5 °C
28 | COc1cc(C(C)=O)ccc1O | 114 to 115 °C
29 | C1=CCCC1 | -135 °C
30 | ClC(c1ccccc1)c1ccccc1 | 16 to 19 °C
31 | O=C(NCc1ccccc1)c1ccccc1 | 105 to 106 °C
32 | O=C(O)Cc1c(Cl)ccc(Cl)c1Cl | 156 to 161 °C
33 | CC(=O)c1ccc(Br)cc1 | 50.5 to 51 °C
34 | CC(C)(c1ccccc1)c1ccc(O)cc1 | 70 to 75 °C
35 | FC(Cl)(Cl)Cl | -111 to -110 °C
36 | Oc1ccc2c(c1)[nH]c1ccccc12 | 272 °C
37 | CC(=O)c1cccc(N)c1 | 96 to 98.5 °C
38 | O=C(O)C(Cl)=C(Cl)Cl | 73 to 76 °C
39 | CN1CCN(C)C1=O | 8 to 8.2 °C
40 | Cc1cccc(N)c1 | -31.3 to -30 °C
41 | CCCCCc1cc(O)c2c(c1)OC(C)(C)c1ccc(C)cc1-2 | 76.5 to 77 °C
42 | Cc1ccc(S(N)(=O)=O)cc1 | 138 to 139 °C
43 | CC(=O)C(C)=O | -3 to -1.2 °C
44 | CCCCCCCCCCCCCl | -9.3 to -9 °C

Row | SMILES | melting point
45 | C=C(C)OC(C)=O | -93 to -92.9 °C
46 | Nc1cccc(C(F)(F)F)c1 | 5.5 to 6 °C
47 | CCCC=C(C)C | -130 °C
48 | CCCCCCCCCCCC(=O)CCCCCCCCCCC | 67 to 70.2 °C
49 | OC1c2ccccc2Oc2ccccc21 | 123 to 128 °C
50 | O=C(O)C(F)(F)C(F)(F)C(F)(F)F | -18 to -17.5 °C
51 | Cl[SiH](Cl)Cl | -127 to -126 °C
52 | Clc1cccnc1Cl | 66 to 67 °C
53 | Oc1cc2ccccc2cc1O | 162 to 164 °C
54 | O=Cc1ccc(I)cc1 | 77 to 78 °C
55 | CC(=O)C1C(=O)C=C(C)OC1=O (stereo unspecified) | 109 to 111 °C
56 | CC(=O)c1cccc([N+](=O)[O-])c1 | 78 to 81 °C
57 | O=S1(=O)CCCO1 | 31.5 to 32 °C
58 | Cc1ccnc(-c2cc(C)ccn2)c1 | 174 to 175 °C
59 | Cn1nnc2ccccc21 | 64.5 to 65 °C
60 | Cc1c(N)cccc1[N+](=O)[O-] | 90 to 92 °C
61 | O=[N+]([O-])c1cccc(CCl)c1 | 45 to 47 °C
62 | O=[N+]([O-])c1cccc(C(F)(F)F)c1 | -5 to -2.4 °C
63 | CC[Si](CC)(CC)CC | -82.5 to -82 °C
64 | CCOP(=S)(OCC)Oc1nc(Cl)c(Cl)cc1Cl | 41.5 to 42.5 °C
65 | COc1cc(-c2ccc(N)c(OC)c2)ccc1N | 136 to 137 °C
66 | Cc1ccc(O)c([N+](=O)[O-])c1 | 34 to 36.5 °C

Row | SMILES | melting point
67 | O=C1C=CC(=O)N1c1ccccc1 | 89 to 90.5 °C
68 | CCCCOC | -116 to -115 °C
69 | COC(=O)c1ccccc1O | -9 to -7 °C
70 | Cc1ccc(OCC(=O)O)cc1 | 140 to 141 °C
71 | CCC(S)CC | -111 °C
72 | Cc1cccc(C)c1C | -25.4 to -25 °C
73 | N#Cc1cc(Cl)ccc1N | 96 to 97 °C
74 | c1c[nH]nn1 | 23 to 24 °C
75 | c1ccc(C(c2ccccc2)c2ccccc2)cc1 | 93 to 94 °C
76 | Brc1ccc(Oc2ccc(Br)cc2)cc1 | 58 to 60.5 °C
77 | C=CCC1(C(C)CCC)C(=O)NC(=O)NC1=O (stereo unspecified) | 95 to 100 °C
78 | O=C(O)C(=Cc1ccccc1)c1ccccc1 | 171 to 172 °C
79 | CC1=CC(=O)OC1=O | 7.5 to 8 °C
80 | Oc1c(Cl)cccc1Cl | 65 to 68.5 °C
81 | O=C(O)CCCCCCCCC(=O)O | 131 to 134 °C
82 | CC(C)C(=O)OC(=O)C(C)C | -56 to -53.5 °C
83 | ClC(Br)Br | -22 to -20 °C
84 | CC(C)(C)CCC(C)(C)C | -13 to -12.6 °C
85 | CC(Cl)Cl | -97 to -96.9 °C
86 | C=CCCCCCCCCCCCCCCC | 11 to 11.5 °C
